Source: US6603023B2 (priority 1996, dated 2003)
Like-named read-outs stand apart in the source and are kept apart here. Marks after values point to notes of the source that are not given here.

Key:
[1] = system: B16 Melanoma; format: in vivo, B6D2F1 mice
Procedure: Body weight was determined at 0, 2, 4, 6, 8, 10 and 12 days. […] Injections were started on day 1. […] Body weight was determined at 0, 2, 4, 6, 8, 10 and 12 days. […] Injections were started on day 1.

[2] = system: MDR human mammary adenocarcinoma MCF-7/Adr xenograft; test: in vivo; conditions: for toxicity: dEpoB 35 mg/kg Q2Dx5 i.p.
Procedure: (§1) DMSO was used as a vehicle for epothilones. Each mouse received ≦40 μL DMSO in all experiments.
(§2) Athymic nude mice (nu/nu) were used for MX-1 and MCF-7/Adr human mammary carcinoma xenografts. Mice were obtained from Taconic Laboratory Animals and Service (Germantown, N.Y.: outbred, Swiss background).

[3] = system: human mammary carcinoma MX-1 xenograft
Procedure: as §1, §2

[4] = 35 mg/kg i.p. Q2Dx5 from day 8, day 11
[5] = 35 mg/kg i.p. Q2Dx5 from day 8, day 13
[6] = 35 mg/kg i.p. Q2Dx5 from day 8, day 15
[7] = 35 mg/kg i.p. Q2Dx5 from day 8, day 17
[8] = 15 mg/kg i.p. Q2Dx5 from day 7, day 11
[9] = 15 mg/kg i.p. Q2Dx5 from day 7, day 13
[10] = 15 mg/kg i.p. Q2Dx5 from day 7, day 15
[11] = 15 mg/kg i.p. Q2Dx5 from day 7, day 17
[12] = 25 mg/kg i.p. Q2Dx5 from day 7, day 11
[13] = 25 mg/kg i.p. Q2Dx5 from day 7, day 13
[14] = 25 mg/kg i.p. Q2Dx5 from day 7, day 15
[15] = 25 mg/kg i.p. Q2Dx5 from day 7, day 17
[16] = 35 mg/kg i.p. Q2Dx5 from day 9, day 13
[17] = 35 mg/kg i.p. Q2Dx5 from day 9, day 15
[18] = 35 mg/kg i.p. Q2Dx5 from day 9, day 17
[19] = 35 mg/kg i.p. Q2Dx5 from day 9, day 19
[20] = 35 mg/kg i.p. d8,10,12,14,16, day 10
[21] = 35 mg/kg i.p. d8,10,12,14,16, day 12
[22] = 35 mg/kg i.p. d8,10,12,14,16, day 14
[23] = 35 mg/kg i.p. d8,10,12,14,16, day 16
[24] = 35 mg/kg i.p. d8,10,12,14,16, day 18
[25] = 40 mg/kg i.p. d18-26, extended after d8-16, day 20
[26] = 40 mg/kg i.p. d18-26, extended after d8-16, day 22
[27] = 40 mg/kg i.p. d18-26, extended after d8-16, day 24
[28] = 40 mg/kg i.p. d18-26, extended after d8-16, day 26

C/C1=C/C[C@@H](/C(C)=C/c2csc(C)n2)OC(=O)C[C@H](O)C(C)(C)C(=O)[C@H](C)[C@@H](O)[C@@H](C)CCC1 [Desoxyepothilone B, desoxyepothilone B]
Average Tumor Volume (T/C) ([1]; 20 mg/kg QD1-4,7-8, day 11): 0.33 | mice died ([1]; 20 mg/kg QDx6 from day 1 (FIG. 44)): 0 of 8 | Toxicity Death ([2]; 35 mg/kg i.p. Q2Dx5 from day 8): 0/8 | Average Body Weight Change [2, 4]: 0.3 g | Average Tumor Size (T/C) [2, 4]: 0.31** | Average Body Weight Change [2, 5]: +0.7 g | Average Tumor Size (T/C) [2, 5]: 0.27*** | Average Body Weight Change [2, 6]: +0.6 g | Average Tumor Size (T/C) [2, 6]: 0.30*** | Average Body Weight Change [2, 7]: +0.8 g | Average Tumor Size (T/C) [2, 7]: 0.34* | tumor size reduction ([2]; 35 mg/kg, day 17): 66% | therapeutic outcome ([2]; 6 hr i.v. infusion, Q2Dx5): far better than Taxol®, although Q2Dx5 did not achieve a cure | toxicity ([2]; listed as dEpoB): negligible toxicity | toxicity ([2]; listed as desoxyepothilone B): no reduction in body weight or apparent toxicity | Average Body Weight (change), Day 14 ([2]; mouse, in vivo): -2.7 g | Average Body Weight (change), Day 16 ([2]; mouse, in vivo): -4.0 g | Average Body Weight (change), Day 18 ([2]; mouse, in vivo): -4.5 g | Average Body Weight, Day 8 ([2]; mouse, in vivo): 30.3 g | Average Tumor Size (T/C), Day 14 ([2]; mouse, in vivo): 0.16*** T/C | Average Tumor Size (T/C), Day 16 ([2]; mouse, in vivo): 0.15 T/C | Average Tumor Size (T/C), Day 18 ([2]; mouse, in vivo): 0.13*** T/C | Lowest Average Tumor Size (T/C) ([2]; mouse, in vivo): 0.11 T/C | Therapeutic Effects dEpoB vs Taxol ([2]; mouse, in vivo): >> | Toxicity Death ([2]; mouse, in vivo): 0/3 | Tumor Disappearance ([2]; mouse, in vivo): 0 | Therapeutic effect Rank Order ([2]; mouse, in vivo, ip): dEpoB >> Camptothecin > | Therapeutic effect Rank Order ([2]; mouse, in vivo, iv): dEpoB >> VP-16, | Toxicity Death ([3]; 15 mg/kg i.p. Q2Dx5 from day 7): 0/6 | Average Body Weight Change [3, 8]: +0.8 g | Average Tumor Size (T/C) [3, 8]: 0.65 | Average Body Weight Change [3, 9]: +1.1 g | Average Tumor Size (T/C) [3, 9]: 0.46 | Average Body Weight Change [3, 10]: +1.6 g | Average Tumor Size (T/C) [3, 10]: 0.49** | Average Body Weight Change [3, 11]: +1.5 g | Average Tumor Size (T/C) [3, 11]: 0.41** | Toxicity Death ([3]; 25 mg/kg i.p. Q2Dx5 from day 7): 0/6 | Average Body Weight Change [3, 12]: +0.4 g | Average Tumor Size (T/C) [3, 12]: 0.38* | Average Body Weight Change [3, 13]: +0.7 g | Average Tumor Size (T/C) [3, 13]: 0.11** | Average Body Weight Change [3, 14]: +1.0 g | Average Tumor Size (T/C) [3, 14]: 0.05*** | Average Body Weight Change [3, 15]: +0.7 g | Average Tumor Size (T/C) [3, 15]: 0.04**** | mice tumor-free (no detectable tumor) on day 35 ([3]; 25 mg/kg i.p. days 7-15): one out of six | average tumor volume reduction ([3]; 25 mg/kg i.p. days 7-15, day 17): ≤ 96% | mice tumor-free (no detectable tumor) on day 35 ([3]; 25 mg/kg i.p. days 7-15, listed as dEpo B): #One out of six mice with no detectable tumor on day 35; | mice with no detectable tumor on day 16 ([3]; 35 mg/kg Q2Dx5 i.p. from day 8): two out of ten | mice with no detectable tumor on day 26 ([3]; 35 mg/kg d8-16 then 40 mg/kg Q2Dx5 from day 18): five out of ten | mice remaining tumor-free on day 60 ([3]; 35 mg/kg d8-16 then 40 mg/kg Q2Dx5 from day 18, of ten): three | mice tumor-free up to day 80 ([3]; 35 mg/kg d8-16 then 40 mg/kg d18-26 i.p.): 3/10 | mice with markedly suppressed tumors ([3]; 35 mg/kg d8-16 then 40 mg/kg d18-26 i.p., sacrificed day 50): 7/10 | lethality ([3]; 35 mg/kg i.p. Q2Dx5 from day 8): 0/10 | mice survived ([3]; 35 mg/kg i.p. Q2Dx5 from day 8): 10/10 | mice with tumor non-detectable on day 18 ([3]; 35 mg/kg i.p. Q2Dx5 from day 8): 3 out of 10 | tumor volume reduction ([3]; 35 mg/kg i.p. Q2Dx5 from day 8): 98% | Toxicity Death ([3]; 35 mg/kg i.p. Q2Dx5 from day 9): 0/6 | Tumor Disapp. ([3]; 35 mg/kg i.p. Q2Dx5 from day 9): 3/6 | Average Body Weight Change [3, 16]: -1.7 g | Average Tumor Size (T/C) [3, 16]: 0.35 | Average Body Weight Change [3, 17]: -2.1 g | Average Tumor Size (T/C) [3, 17]: 0.14 | Average Body Weight Change [3, 18]: -2.1 g | Average Tumor Size (T/C) [3, 18]: 0.04 | Average Body Weight Change [3, 19]: -2.4 g | Average Tumor Size (T/C) [3, 19]: 0.02 | # Mice Died ([3]; 35 mg/kg i.p. d8,10,12,14,16): 3/10 | Tumor Disappearance ([3]; 35 mg/kg i.p. d8,10,12,14,16): 0/10 | Average Body Weight Change [3, 20]: -0.1 g | Average Tumor Volume (T/C) [3, 20]: 0.42 | Average Body Weight Change [3, 21]: +0.7 g | Average Tumor Volume (T/C) [3, 21]: 0.28 | Average Body Weight Change [3, 22]: -0.3 g | Average Tumor Volume (T/C) [3, 22]: 0.07 | Average Body Weight Change [3, 23]: -1.7 g | Average Tumor Volume (T/C) [3, 23]: 0.04 | Average Body Weight Change [3, 24]: -1.6 g | Average Tumor Volume (T/C) [3, 24]: 0.02 | # Died ([3]; 40 mg/kg i.p. d18-26, extended after d8-16): 0/10 | Average Tumor Disappearance Duration (Day) ([3]; 40 mg/kg i.p. d18-26, extended after d8-16, (5/10)): 44(5/10) Day | Average Body Weight Change [3, 25]: -1.7 g | Tumor Disappearance [3, 25]: 2/10^b | Average Body Weight Change [3, 26]: -2.4 g | Tumor Disappearance [3, 26]: 2/10 | Average Body Weight Change [3, 27]: -2.4 g | Tumor Disappearance [3, 27]: 3/10 | Average Body Weight Change [3, 28]: -1.4 g | Tumor Disappearance [3, 28]: 5/10
